Data on two compounds can be found in patent publication US8236839B2, “Dual-acting antihypertensive agents” (Theravance, Inc., priority 2007, dated 2012).

For test [1], the target named is T1, human AT1 receptor (Homo sapiens, UniProt P30556).
T1 construct: expressed in transfected cells; membrane preparation
T1 sequence (P30556 1-359): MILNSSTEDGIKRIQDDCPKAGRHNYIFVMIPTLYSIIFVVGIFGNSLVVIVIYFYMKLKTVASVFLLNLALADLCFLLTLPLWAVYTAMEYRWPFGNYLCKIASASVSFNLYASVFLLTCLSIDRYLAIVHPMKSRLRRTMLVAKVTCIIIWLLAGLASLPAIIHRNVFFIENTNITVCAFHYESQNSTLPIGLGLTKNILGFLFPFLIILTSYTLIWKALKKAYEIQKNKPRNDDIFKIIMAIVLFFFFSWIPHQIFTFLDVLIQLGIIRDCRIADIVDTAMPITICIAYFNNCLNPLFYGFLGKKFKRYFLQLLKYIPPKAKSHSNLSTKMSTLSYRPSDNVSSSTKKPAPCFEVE
As to the kind of experiment: AT1 radioligand binding assay. To be noted: displacement of [Eu]AngII at 2 nM, membranes of CHO-K1 cells expressing human AT1 receptor; read-out: pKi at the AT1 receptor (converted). As for the experimental part: These in vitro assays were used to assess the ability of test compounds to bind to the AT1 and the AT2 receptors.
Chinese hamster ovary (CHO-K1) derived cell lines stably expressing the cloned human AT1 or AT2 receptors, respectively, were grown in HAM's-F12 medium supplemented with 10% fetal bovine serum, 10 μg/ml penicillin/streptomycin, and 500 μg/ml geneticin in a 5% CO2 humidified incubator at 37° C. AT2 receptor expressing cells were grown in the additional presence of 100 nM PD123,319 (AT2 antagonist). When cultures reached 80-95% confluence, the cells were washed thoroughly in PBS and lifted with 5 mM EDTA. Cells were pelleted by centrifugation and snap frozen in MeOH-dry ice and stored at −80° C. until further use.
For membrane preparation, cell pellets were resuspended in lysis buffer (25 mM Tris/HCl pH 7.5 at 4° C., 1 mM EDTA, and one tablet of Complete Protease Inhibitor Cocktail Tablets with 2 mM EDTA per 50 mL buffer (Roche cat. #1697498, Roche Molecular Biochemicals, Indianapolis, Ind.)) and homogenized using a tight-fitting Dounce glass homogenizer (10 strokes) on ice. The homogenate was centrifuged at 1000×g, the supernatant was collected and centrifuged at 20,000×g. […] Protein concentration of the membrane suspension was determined by the method described in Bradford (1976) Anal Biochem. 72:248-54. […]

Test [2] has as its target T2, NEP enzyme (Homo sapiens, UniProt P08473).
T2 construct: purchased R&D Systems, Minneapolis, Minn; 1182-ZN
As to the kind of experiment: In vitro enzyme inhibition assay at NEP. Particulars: fluorogenic peptide substrate; human or rat NEP not given; read-out: pIC50 for the NEP enzyme (converted). In kind it is biochemical. The method, then: The inhibitory activities of compounds at human and rat NEP and human ACE were determined using in vitro assays as described below.
Rat NEP was prepared from the kidneys of adult Sprague Dawley rats. Whole kidneys were washed in cold PBS and brought up in ice-cold lysis buffer (1% Triton X-114, 150 mM NaCl, 50 mM Tris pH 7.5; Bordier (1981) J. Biol. Chem. 256:1604-1607) in a ratio of 5 mL of buffer for every gram of kidney. Samples were homogenized using a polytron hand held tissue grinder on ice. Homogenates were centrifuged at 1000×g in a swinging bucket rotor for 5 minutes at 3° C. The pellet was resuspended in 20 mL of ice cold lysis buffer and incubated on ice for 30 minutes. […] Protein concentrations were quantitated using a BCA detection system with BSA as a standard. […]
The assays were performed in 384-well white opaque plates at room temperature using the respective fluorogenic peptides at a concentration of 10 μM in assay buffer (50 mM Tris/HCl at 25° C., 100 mM NaCl, 0.01% Tween-20, 1 μM Zn, 0.025% BSA). […] The rat NEP enzyme preparation was used at a concentration that yielded quantitative proteolysis of 3 μM of Mca-RRL within 20 minutes at room temperature.
Assays were started by adding 25 μL of enzyme to 12.5 μL of test compound at 12 concentrations (10 μM to 20 pM). […] Plates were read on a fluorometer with excitation and emission wavelengths set to 320 nm and 405 nm, respectively. […]

T2 sequence (P08473 52-750 limits assumed): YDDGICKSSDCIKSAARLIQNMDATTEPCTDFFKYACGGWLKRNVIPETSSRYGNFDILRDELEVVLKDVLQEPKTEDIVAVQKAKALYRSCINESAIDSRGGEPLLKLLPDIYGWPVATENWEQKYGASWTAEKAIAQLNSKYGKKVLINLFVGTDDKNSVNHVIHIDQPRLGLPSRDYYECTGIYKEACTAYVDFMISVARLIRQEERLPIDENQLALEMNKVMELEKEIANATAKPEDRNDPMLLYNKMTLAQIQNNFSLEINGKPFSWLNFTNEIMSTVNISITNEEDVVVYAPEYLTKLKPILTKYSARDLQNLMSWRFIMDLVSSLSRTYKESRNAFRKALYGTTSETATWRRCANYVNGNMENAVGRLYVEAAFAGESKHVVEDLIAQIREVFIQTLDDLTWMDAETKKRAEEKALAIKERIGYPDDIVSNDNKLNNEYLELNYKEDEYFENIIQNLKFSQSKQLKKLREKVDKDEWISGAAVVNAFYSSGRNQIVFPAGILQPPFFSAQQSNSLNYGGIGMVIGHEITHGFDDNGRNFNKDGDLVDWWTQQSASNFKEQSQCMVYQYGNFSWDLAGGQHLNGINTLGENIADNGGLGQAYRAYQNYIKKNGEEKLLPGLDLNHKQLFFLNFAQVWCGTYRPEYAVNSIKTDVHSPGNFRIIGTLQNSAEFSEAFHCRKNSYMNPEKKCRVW

For the compound `CCCCCN(Cc1ccc(-c2ccccc2-c2nnn[nH]2)cc1)C(=O)[C@H](CC(=O)O)NC(=O)C(CS)CC(C)C` (stereo partly drawn) [Example 1, (S)-3-(2-Mercaptomethyl-4-methylpentanoylamino)-N-pentyl-N-[2′1-(1H-tetrazol-5-yl)biphenyl-4-ylmethyl]succinamic Acid], the Ki in test [1] was < 10 nM. Moreover, the IC50 in test [2] is ≤ 100 nM.

Consider `CCCCCN(Cc1ccc(-c2ccccc2-c2nnn[nH]2)cc1)C(=O)N1C[C@@H](NC(=O)C(CC(C)C)C(=O)NO)C[C@H]1C(=O)O` (stereo partly drawn) [Example 2, (2S,4S)-4-(2-Hydroxycarbamoyl-4-methylpentanoylamino)-1-{pentyl[2′-(1H-tetrazol-5-yl)biphenyl-4-ylmethyl]carbamoyl}pyrrolidine-2-carboxylic Acid], for which the Ki in test [1] is < 10 nM. Besides, the IC50 in test [2] was ≤ 100 nM.
